Laboratory results reported in BindingDB's records for doi:10.1021/jm400568p (University of Manchester, 2013).

Biological target: DNA-(apurinic or apyrimidinic site) endonuclease (Homo sapiens, UniProt P27695)
Assay: Inhibition of APE-1 (unknown origin) using double-stranded AP-site containing DNA as substrate after 30 mins by fluorescence assay

Sequence of DNA-(apurinic or apyrimidinic site) endonuclease (P27695 whole entry): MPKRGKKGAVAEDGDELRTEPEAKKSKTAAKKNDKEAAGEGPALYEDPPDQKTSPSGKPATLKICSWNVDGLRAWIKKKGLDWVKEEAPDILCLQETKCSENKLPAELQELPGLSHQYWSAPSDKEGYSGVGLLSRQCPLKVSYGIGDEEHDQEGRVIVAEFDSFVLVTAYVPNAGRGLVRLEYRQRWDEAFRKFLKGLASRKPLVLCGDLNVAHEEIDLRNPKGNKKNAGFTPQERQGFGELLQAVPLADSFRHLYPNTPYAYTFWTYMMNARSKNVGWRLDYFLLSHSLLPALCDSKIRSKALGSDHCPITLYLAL

- IC50: > 200 µM
Compound: Cn1nc(-c2ccccc2)c(O)c2c(=O)[nH]c(=N)nc1-2
